What was measured:
[1] = molecular target: BRG-1 (Homo sapiens, UniProt P51532); experiment: ATPase catalytic activity assay of BRG-1 (ADP-Glo); type: biochemical; conditions: ATPase catalytic activity, ADP-Glo; for IC50: read-out: BRG1 IC50 (μM)*; for Emax: read-out: BRG1 Max % Inhibition
Outline: (§1)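 ADP formed by the ATPase reaction was quantified by ADP-Glo luminescence. After the reaction, unconsumed ATP was depleted (40 min, room temperature), then ADP was converted to ATP for luciferase detection (60 min, room temperature) before reading on a luminometer.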

[2] = molecular target: BRM (Homo sapiens, UniProt P51531); experiment: ATPase catalytic activity assay of BRM (ADP-Glo); type: biochemical; conditions: for IC50: read-out: BRM IC50 (μM)*
Chain of BRM (P51531 whole entry): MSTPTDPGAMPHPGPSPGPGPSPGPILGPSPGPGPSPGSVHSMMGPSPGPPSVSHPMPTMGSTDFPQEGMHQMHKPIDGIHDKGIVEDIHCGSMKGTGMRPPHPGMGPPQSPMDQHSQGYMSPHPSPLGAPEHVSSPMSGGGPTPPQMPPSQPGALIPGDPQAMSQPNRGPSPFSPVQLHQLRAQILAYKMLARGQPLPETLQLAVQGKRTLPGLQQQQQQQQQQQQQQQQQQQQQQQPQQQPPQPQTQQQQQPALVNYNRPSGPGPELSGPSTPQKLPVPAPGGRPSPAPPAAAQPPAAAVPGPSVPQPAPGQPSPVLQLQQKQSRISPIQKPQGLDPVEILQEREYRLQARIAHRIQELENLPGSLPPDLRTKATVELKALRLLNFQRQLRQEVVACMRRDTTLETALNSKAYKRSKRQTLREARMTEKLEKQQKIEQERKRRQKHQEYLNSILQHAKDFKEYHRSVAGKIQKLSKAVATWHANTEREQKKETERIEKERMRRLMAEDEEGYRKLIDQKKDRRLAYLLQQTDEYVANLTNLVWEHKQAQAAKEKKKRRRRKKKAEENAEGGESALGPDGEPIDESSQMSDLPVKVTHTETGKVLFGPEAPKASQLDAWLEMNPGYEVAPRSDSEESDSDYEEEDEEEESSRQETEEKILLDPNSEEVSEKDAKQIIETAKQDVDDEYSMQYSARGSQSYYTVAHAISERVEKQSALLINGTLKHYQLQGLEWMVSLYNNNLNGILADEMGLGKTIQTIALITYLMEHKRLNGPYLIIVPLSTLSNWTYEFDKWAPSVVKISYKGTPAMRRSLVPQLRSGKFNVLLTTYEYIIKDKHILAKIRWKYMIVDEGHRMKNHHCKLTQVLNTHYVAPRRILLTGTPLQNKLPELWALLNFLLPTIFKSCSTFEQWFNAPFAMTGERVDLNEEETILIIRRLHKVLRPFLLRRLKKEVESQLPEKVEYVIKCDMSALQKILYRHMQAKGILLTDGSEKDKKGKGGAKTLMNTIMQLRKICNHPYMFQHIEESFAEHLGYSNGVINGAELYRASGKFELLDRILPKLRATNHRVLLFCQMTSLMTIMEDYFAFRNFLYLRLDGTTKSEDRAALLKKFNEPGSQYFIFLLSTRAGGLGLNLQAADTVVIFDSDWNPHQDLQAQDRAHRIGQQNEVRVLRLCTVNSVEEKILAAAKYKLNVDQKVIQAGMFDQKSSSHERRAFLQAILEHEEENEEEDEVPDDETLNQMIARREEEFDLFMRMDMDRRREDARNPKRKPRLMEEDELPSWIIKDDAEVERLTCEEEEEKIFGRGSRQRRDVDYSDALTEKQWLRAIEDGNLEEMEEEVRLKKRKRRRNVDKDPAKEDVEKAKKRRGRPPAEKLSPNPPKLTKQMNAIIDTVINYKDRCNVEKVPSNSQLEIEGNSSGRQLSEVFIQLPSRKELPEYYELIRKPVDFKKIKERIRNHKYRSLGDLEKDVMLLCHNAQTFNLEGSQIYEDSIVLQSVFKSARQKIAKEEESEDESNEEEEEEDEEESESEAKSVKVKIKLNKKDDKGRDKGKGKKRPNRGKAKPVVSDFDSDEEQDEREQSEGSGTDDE
Outline: as §1

Chain of BRG-1 (P51532 whole entry): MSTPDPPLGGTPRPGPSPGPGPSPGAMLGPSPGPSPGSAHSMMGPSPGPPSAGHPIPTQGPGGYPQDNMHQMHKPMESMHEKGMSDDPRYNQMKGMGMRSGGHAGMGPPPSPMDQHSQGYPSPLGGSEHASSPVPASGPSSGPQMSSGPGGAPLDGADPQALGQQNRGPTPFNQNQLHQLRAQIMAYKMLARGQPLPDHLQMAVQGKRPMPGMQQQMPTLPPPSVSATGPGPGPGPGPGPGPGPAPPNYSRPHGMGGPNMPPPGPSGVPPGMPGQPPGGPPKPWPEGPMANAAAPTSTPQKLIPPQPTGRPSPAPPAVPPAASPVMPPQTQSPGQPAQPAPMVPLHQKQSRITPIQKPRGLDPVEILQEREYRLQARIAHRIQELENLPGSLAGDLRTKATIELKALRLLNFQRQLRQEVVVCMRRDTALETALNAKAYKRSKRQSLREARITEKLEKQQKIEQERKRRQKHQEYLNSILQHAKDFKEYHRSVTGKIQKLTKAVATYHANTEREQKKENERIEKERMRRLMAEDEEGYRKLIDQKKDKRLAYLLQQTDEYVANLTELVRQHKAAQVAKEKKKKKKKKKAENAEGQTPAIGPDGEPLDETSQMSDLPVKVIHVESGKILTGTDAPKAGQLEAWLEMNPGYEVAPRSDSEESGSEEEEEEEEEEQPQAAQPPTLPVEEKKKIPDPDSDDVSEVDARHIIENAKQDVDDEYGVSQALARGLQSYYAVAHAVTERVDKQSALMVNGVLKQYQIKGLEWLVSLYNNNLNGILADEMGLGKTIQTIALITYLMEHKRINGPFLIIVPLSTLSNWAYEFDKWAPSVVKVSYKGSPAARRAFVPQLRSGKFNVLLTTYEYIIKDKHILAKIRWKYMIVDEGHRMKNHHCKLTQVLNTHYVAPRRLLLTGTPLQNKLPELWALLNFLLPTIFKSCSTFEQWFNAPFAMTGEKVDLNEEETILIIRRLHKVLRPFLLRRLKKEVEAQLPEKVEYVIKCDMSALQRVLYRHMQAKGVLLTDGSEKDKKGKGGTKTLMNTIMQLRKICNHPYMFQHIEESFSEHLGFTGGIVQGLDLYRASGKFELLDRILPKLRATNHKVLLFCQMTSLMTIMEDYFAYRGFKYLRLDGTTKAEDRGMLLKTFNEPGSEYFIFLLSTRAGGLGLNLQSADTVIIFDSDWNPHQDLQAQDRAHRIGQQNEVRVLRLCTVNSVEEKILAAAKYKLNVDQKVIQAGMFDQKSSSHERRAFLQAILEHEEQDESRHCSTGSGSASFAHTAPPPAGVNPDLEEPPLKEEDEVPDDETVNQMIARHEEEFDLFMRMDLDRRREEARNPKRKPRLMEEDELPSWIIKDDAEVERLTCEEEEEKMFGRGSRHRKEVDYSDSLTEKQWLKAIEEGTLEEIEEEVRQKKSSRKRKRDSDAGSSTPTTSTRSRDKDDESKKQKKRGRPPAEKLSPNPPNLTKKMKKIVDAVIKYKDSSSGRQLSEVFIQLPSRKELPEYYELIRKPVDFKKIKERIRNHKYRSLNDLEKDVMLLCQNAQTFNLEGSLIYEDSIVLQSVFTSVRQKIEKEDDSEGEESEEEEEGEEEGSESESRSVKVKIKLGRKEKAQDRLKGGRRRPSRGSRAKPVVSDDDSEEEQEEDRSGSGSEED

Row | IC50 [1] | Emax [1] | BRM Max % Inhibition [2] | IC50 [2] | Structure (SMILES)
1 | 1 to 5 µM | > 50% | >90% | 0.1 to 1 µM | C[C@@H]1CN(c2cccc(-c3csc(NC(=O)CNC(=O)c4ccc5c(c4)[C@@]4(CCC[C@H]4O)CC5)n3)c2)C[C@H](C)O1 [Compound 188, (1R,2R)-N-(2-((4-(3-((cis)-2,6-dimethylmorpholino)phenyl)thiazol-2-yl)amino)-2-oxoethyl)-2-hydroxy-2′,3′-dihydrospiro[cyclopentane-1,1′-indene]-6′-carboxamide]
2 | 1 to 5 µM | > 50% | >90% | 0.1 to 1 µM | C[C@@H]1CN(c2cccc(-c3csc(NC(=O)CNC(=O)c4ccc5c(c4)[C@]4(CCC[C@@H]4O)CC5)n3)c2)C[C@H](C)O1 [Compound 189, (1S,2S)-N-(2-((4-(3-((cis)-2,6-dimethylmorpholino)phenyl)thiazol-2-yl)amino)-2-oxoethyl)-2-hydroxy-2′,3′-dihydrospiro[cyclopentane-1,1′-indene]-6′-carboxamide]
3 | 0.1 to 1 µM | > 70% | >90% | 0.1 to 1 µM | Cc1cnc(O)c(-c2cccc(-c3csc(NC(=O)CNC(=O)c4ccc5c(c4)[C@@](C)(CO)CC5)n3)n2)c1 [Compound 190, (S)-N-(2-((4-(2′-hydroxy-5′-methyl-[2,3′-bipyridin]-6-yl)thiazol-2-yl)amino)-2-oxoethyl)-3-(hydroxymethyl)-3-methyl-2,3-dihydro-1H-indene-5-carboxamide]
4 | 0.1 to 1 µM | > 80% | >90% | 0.1 to 1 µM | C[C@]1(CO)CCc2ccc(C(=O)NCC(=O)Nc3nc(-c4cccc(-c5cccnc5O)n4)cs3)cc21 [Compound 191, (S)-N-(2-((4-(2′-hydroxy-[2,3′-bipyridin]-6-yl)thiazol-2-yl)amino)-2-oxoethyl)-3-(hydroxymethyl)-3-methyl-2,3-dihydro-1H-indene-5-carboxamide]
5 | 1 to 5 µM | > 60% | >90% | 0.1 to 1 µM | Cn1ccc(-c2cccc(-c3csc(NC(=O)CNC(=O)c4ccc5c(c4)[C@@](C)(CO)CC5)n3)n2)n1 [Compound 192, (3S)-3-(hydroxymethyl)-3-methyl-N-[2-[[4-[6-(1-methylpyrazol-3-yl)-2-pyridyl]thiazol-2-yl]amino]-2-oxo-ethyl]indane-5-carboxamide]
6 | 1 to 5 µM | > 70% | >95% | 0.1 to 1 µM | C[C@@H]1CN(c2cccc(-c3csc(NC(=O)CNC(=O)c4ccc5c(c4)C4(CCCC4=O)CC5)n3)c2)C[C@H](C)O1 (stereo partly drawn) [Compound 195, N-(2-((4-(3-((cis)-2,6-dimethylmorpholino)phenyl)thiazol-2-yl)amino)-2-oxoethyl)-2-oxo-2′,3′-dihydrospiro[cyclopentane-1,1′-indene]-6′-carboxamide]
7 | 1 to 5 µM | > 60% | >90% | 0.1 to 1 µM | CC(C)(C)c1cccc(C(=O)NCC(=O)Nc2nc(-c3cccc(N4CCC4)c3)cs2)c1 [Compound 196, N-(2-((4-(3-(azetidin-1-yl)phenyl)thiazol-2-yl)amino)-2-oxoethyl)-3-(tert-butyl)benzamide]
8 | > 5 µM | < 30% | – | 1 to 5 µM | C[C@@]1(CO)CCc2c(C(=O)NCC(=O)Nc3nc(-c4cccc(-c5ccncc5)c4)cs3)cccc21 [Compound 197]
9 | 0.1 to 1 µM | > 95% | >95% | < 0.1 µM | C[C@@H]1CN(c2cc(F)cc(-c3csc(NC(=O)CNC(=O)c4ccc(F)c(C(C)(C)CO)c4)n3)c2)C[C@H](C)O1 [Compound 198, N-(2-((4-(3-((cis)-2,6-dimethylmorpholino)-5-fluorophenyl)thiazol-2-yl)amino)-2-oxoethyl)-4-fluoro-3-(1-hydroxy-2-methylpropan-2-yl)benzamide]
10 | < 0.1 µM | > 95% | >95% | < 0.1 µM | C[C@@H]1CN(c2cc(F)cc(-c3csc(NC(=O)CNC(=O)c4ccc(Cl)c(C(C)(C)CO)c4)n3)c2)C[C@H](C)O1 [Compound 199, 4-chloro-N-[2-[[4-[3-[(cis)-2,6-dimethylmorpholin-4-yl]-5-fluoro-phenyl]thiazol-2-yl]amino]-2-oxo-ethyl]-3-(2-hydroxy-1,1-dimethyl-ethyl)benzamide]
11 | 0.1 to 1 µM | > 80% | >95% | < 0.1 µM | C[C@@H]1CN(c2cccc(-c3csc(NC(=O)CNC(=O)c4ccc(F)c(C(C)(C)CO)c4)n3)c2)C[C@H](C)O1 [Compound 200, N-(2-((4-(3-((cis)-2,6-dimethylmorpholino)phenyl)thiazol-2-yl)amino)-2-oxoethyl)-4-fluoro-3-(1-hydroxy-2-methylpropan-2-yl)benzamide]
12 | 0.1 to 1 µM | > 90% | >95% | < 0.1 µM | Cc1cc(-c2cccc(-c3csc(NC(=O)CNC(=O)c4ccc(C)c(C(C)(C)CN)c4)n3)n2)ncn1 [Compound 201, 3-(2-amino-1,1-dimethyl-ethyl)-4-methyl-N-[2-[[4-[6-(6-methylpyrimidin-4-yl)-2-pyridyl]thiazol-2-yl]amino]-2-oxo-ethyl]benzamide]
13 | 1 to 5 µM | > 80% | >90% | 0.1 to 1 µM | C[C@@H]1CN(c2cccc(-c3csc(NC(=O)CNC(=O)c4cc(C(C)(C)C)ccn4)n3)c2)C[C@H](C)O1 [Compound 202, 4-tert-butyl-N-[2-[[4-[3-[(cis)-2,6-dimethylmorpholin-4-yl]phenyl]thiazol-2-yl]amino]-2-oxo-ethyl]pyridine-2-carboxamide]
14 | 0.1 to 1 µM | > 95% | >95% | < 0.1 µM | Cc1cc(-c2cccc(-c3csc(NC(=O)CNC(=O)c4ccc5c(c4)[C@](C)(CO)CC5)n3)n2)ncn1 [Compound 203, (3R)-3-(hydroxymethyl)-3-methyl-N-[2-[[4-[6-(6-methylpyrimidin-4-yl)-2-pyridyl]thiazol-2-yl]amino]-2-oxo-ethyl]indane-5-carboxamide]
15 | 0.1 to 1 µM | > 90% | >95% | < 0.1 µM | Cc1cc(-c2cccc(-c3csc(NC(=O)CNC(=O)c4ccc5c(c4)[C@@](C)(CO)CC5)n3)n2)ncn1 [Compound 204, (3S)-3-(hydroxymethyl)-3-methyl-N-[2-[[4-[6-(6-methylpyrimidin-4-yl)-2-pyridyl]thiazol-2-yl]amino]-2-oxo-ethyl]indane-5-carboxamide]
16 | 1 to 5 µM | > 70% | >95% | 0.1 to 1 µM | C[C@@H]1CN(c2cccc(-c3csc(NC(=O)CNC(=O)c4ccnc(C(C)(C)C)c4)n3)c2)C[C@H](C)O1 [Compound 205, 2-(tert-butyl)-N-(2-((4-(3-((cis)-2,6-dimethylmorpholino)phenyl)thiazol-2-yl)amino)-2-oxoethyl)isonicotinamide]
17 | 1 to 5 µM | > 70% | >95% | 0.1 to 1 µM | Cc1nccc(-c2cccc(-c3csc(NC(=O)CNC(=O)c4ccc(C)c(C(C)(C)CN)c4)n3)n2)n1 [Compound 206, 3-(2-amino-1,1-dimethyl-ethyl)-4-methyl-N-[2-[[4-[6-(2-methylpyrimidin-4-yl)-2-pyridyl]thiazol-2-yl]amino]-2-oxo-ethyl]benzamide]
18 | > 5 µM | > 50% | >90% | 0.1 to 1 µM | Cc1cc(-c2cccc(-c3csc(NC(=O)CNC(=O)c4ccc5c(c4)[C@@](C)(CO)CCC5)n3)n2)ncn1 [Compound 207, (S)-8-(hydroxymethyl)-8-methyl-N-(2-((4-(6-(6-methylpyrimidin-4-yl)pyridin-2-yl)thiazol-2-yl)amino)-2-oxoethyl)-5,6,7,8-tetrahydronaphthalene-2-carboxamide]
19 | 1 to 5 µM | > 60% | >95% | 0.1 to 1 µM | Cc1cc(-c2cccc(-c3csc(NC(=O)CNC(=O)c4ccc5c(c4)[C@](C)(CO)CCC5)n3)n2)ncn1 [Compound 208, (R)-8-(hydroxymethyl)-8-methyl-N-(2-((4-(6-(6-methylpyrimidin-4-yl)pyridin-2-yl)thiazol-2-yl)amino)-2-oxoethyl)-5,6,7,8-tetrahydronaphthalene-2-carboxamide]
20 | 1 to 5 µM | > 50% | >90% | 0.1 to 1 µM | CC(C)(CN)c1cccc(C(=O)NCC(=O)Nc2nc(-c3cccc(-c4cccc(CN)c4)c3)cs2)c1 [Compound 209, 3-(2-amino-1,1-dimethyl-ethyl)-N-[2-[[4-[3-[3-(aminomethyl)phenyl]phenyl]thiazol-2-yl]amino]-2-oxo-ethyl]benzamide]
21 | 0.1 to 1 µM | > 80% | >95% | < 0.1 µM | CC1(C)c2cc(C(=O)NCC(=O)Nc3nc(-c4cccc(-c5ccncc5)c4)cs3)ccc2C[C@H]1N [Compound 210, (R)-2-amino-3,3-dimethyl-N-(2-oxo-2-((4-(3-(pyridin-4-yl)phenyl)thiazol-2-yl)amino)ethyl)-2,3-dihydro-1H-indene-5-carboxamide]
22 | > 5 µM | > 40% | >80% | 0.1 to 1 µM | Cc1nccc(-c2cccc(-c3csc(NC(=O)CNC(=O)c4ccc5c(c4)[C@@](C)(CO)CCC5)n3)n2)n1 [Compound 211, (4S)-4-(hydroxymethyl)-4-methyl-N-[2-[[4-[6-(2-methylpyrimidin-4-yl)-2-pyridyl]thiazol-2-yl]amino]-2-oxo-ethyl]tetralin-6-carboxamide]

From US12685735B2 (Foghorn Therapeutics Inc., priority 2020, dated 2026)
